Data taken from article PMC7179445, “Anticancer Activities of Newly Synthesized Chiral Macrocyclic Heptapeptide Candidates” (Molecules, 2020).
Read-outs that look alike come from different tables or passages of the source.

Key:
HepG2 cells = format: cell-based, human
Description: (§1) The cytotoxic effects of the prepared compounds on MCF-7 and HepG2 cells were investigated with the help of standard MTT assay. […] Plates were then further incubated for 72 h. Afterwards, 20 μL of MTT (5 mg/mL in PBS) were pipetted to the wells and incubated for another 4 h. The medium was then aspirated and 100 μL DMSO were added/well. Absorbance was read using a microplate reader at 570 nm. IC50 values, used to compare compound toxicity with control cells, were obtained from linear regression of the dose–response curve using Origin® 6.1 software (OriginLab Corporation, Northampton, MA, USA). […] Data were represented as mean ± SD.

MCF-7 cells = format: cell-based, human; conditions: for IC50: 72 h
Description: as §1

Question: How did the IC50 (HepG2 cells; 72 h) turn out when CC[C@H](C)[C@@H]1NC(=O)c2cccc(n2)C(=O)N[C@@H]([C@@H](C)CC)C(=O)N[C@@H](Cc2ccccc2)C(=O)N[C@@H]([C@@H](C)CC)C(=O)N[C@H](C(=O)OC)CCCCNC(=O)[C@H]([C@@H](C)CC)NC(=O)[C@H](Cc2ccccc2)NC1=O [4b, Cyclo-(N^α-dipicolinoyl)-bis-[(L-ILe-L-Phe-L-Ile)-L-Lysmethyl ester]] was run?
Answer: 7.17 ± 0.892 µM

Question: What about the IC50 (MCF-7 cells) of the same compound?
Answer: 9.19 ± 0.545 µM

Question: CC[C@H](C)[C@H](NC(=O)[C@@H](NC(=O)c1cccc(C(=O)N[C@H](C(=O)N[C@H](C(=O)O)[C@@H](C)CC)[C@@H](C)CC)n1)[C@@H](C)CC)C(=O)O [1a] was tested. Which IC50 (HepG2 cells; 72 h) did it give?
Answer: 6.62 ± 0.353 µM

Question: And the IC50 (MCF-7 cells)?
Answer: 15.3 ± 0.672 µM

Question: Which IC50 (HepG2 cells; 72 h) does the source give for CC[C@H](C)[C@H](NC(=O)c1cccc(C(=O)N[C@H](C(=O)N[C@@H](Cc2ccccc2)C(=O)N[C@H](C(=O)OC)[C@@H](C)CC)[C@@H](C)CC)n1)C(=O)N[C@@H](Cc1ccccc1)C(=O)N[C@H](C(=O)OC)[C@@H](C)CC [2b, N^α-Dipicolinoyl-bis[L-ILe-L-L-Phe-ILe-methyl ester]] here?
Answer: 18.7 ± 0.988 µM

Question: What about the IC50 (MCF-7 cells) of the same compound?
Answer: 20.7 ± 0.974 µM

Question: What does the source list for CC[C@H](C)[C@H](NC(=O)c1cccc(C(=O)N[C@H](C(=O)N[C@H](C(=O)N[C@@H](Cc2ccccc2)C(=O)O)[C@@H](C)CC)[C@@H](C)CC)n1)C(=O)N[C@H](C(=O)N[C@@H](Cc1ccccc1)C(=O)O)[C@@H](C)CC [3a, N^α-Dipicolinoyl-bis[L-ILe-L-ILe-L-Phe-carboxylic acid]]?
Answer: IC50 (HepG2 cells; 72 h): 8.06 ± 0.863 µM; IC50 (MCF-7 cells): 10.3 ± 0.546 µM

Question: Which results are given for CC[C@H](C)[C@@H]1NC(=O)c2cccc(n2)C(=O)N[C@@H]([C@@H](C)CC)C(=O)N[C@@H]([C@@H](C)CC)C(=O)N[C@@H](Cc2ccccc2)C(=O)N[C@H](C(=O)OC)CCCCNC(=O)[C@H](Cc2ccccc2)NC(=O)[C@H]([C@@H](C)CC)NC1=O [4a, Cyclo-(N^α-dipicolinoyl)-bis-[(L-ILe-L-ILe-L-Phe)-L-Lysmethyl ester]]?
Answer: IC50 (HepG2 cells; 72 h): 7.31 ± 0.595 µM; IC50 (MCF-7 cells): 9.3 ± 0.536 µM

Question: With CC[C@H](C)[C@@H]1NC(=O)c2cccc(n2)C(=O)N[C@@H]([C@@H](C)CC)C(=O)N[C@@H]([C@@H](C)CC)C(=O)N[C@@H](Cc2ccccc2)C(=O)N[C@H](C(=O)O)CCCCNC(=O)[C@H](Cc2ccccc2)NC(=O)[C@H]([C@@H](C)CC)NC1=O [5a, Cyclo-(N^α-dipicolinoyl)-bis-[(L-ILe-L-Ile-L-Phe)-L-Lyscarboxylic acid]] as the compound, how does the IC50 (HepG2 cells; 72 h) read?
Answer: 7.12 ± 0.79 µM

Question: CC[C@H](C)[C@@H]1NC(=O)[C@H](Cc2ccccc2)NC(=O)c2cccc(n2)C(=O)N[C@@H](Cc2ccccc2)C(=O)N[C@@H]([C@@H](C)CC)C(=O)N[C@@H]([C@@H](C)CC)C(=O)N[C@H](C(=O)O)CCCCNC(=O)[C@H]([C@@H](C)CC)NC1=O [5c, Cyclo-(N^α-dipicolinoyl)-bis-[(L-Phe-L-ILe-L-Ile)-L-Lyscarboxylic acid]] was tested. Which “cytotoxic activity against HepG2 cells (in words)” value (HepG2 cells) did it give?
Answer: only active against HepG2 cells

Question: What about the IC50 (HepG2 cells; 72 h) of the same compound?
Answer: 9.57 ± 1.14 µM

Question: What about the “cytotoxic activity against MCF-7 cells (in words)” value (MCF-7 cells) of the same compound?
Answer: did not show any activity

Question: What does the source list for CC[C@H](C)[C@H](NC(=O)[C@H](Cc1ccccc1)NC(=O)c1cccc(C(=O)N[C@@H](Cc2ccccc2)C(=O)N[C@H](C(=O)O)[C@@H](C)CC)n1)C(=O)O [1c]?
Answer: IC50 (HepG2 cells; 72 h): 17 ± 0.965 µM; IC50 (MCF-7 cells): 34.9 ± 1.27 µM

Question: What does the source list for CC[C@H](C)[C@H](NC(=O)c1cccc(C(=O)N[C@H](C(=O)N[C@@H](Cc2ccccc2)C(=O)O)[C@@H](C)CC)n1)C(=O)N[C@@H](Cc1ccccc1)C(=O)O [1b]?
Answer: IC50 (HepG2 cells; 72 h): 8.72 ± 0.474 µM; IC50 (MCF-7 cells): 10.9 ± 0.534 µM

Question: Which results are given for CC[C@H](C)[C@H](NC(=O)[C@@H](NC(=O)[C@H](Cc1ccccc1)NC(=O)c1cccc(C(=O)N[C@@H](Cc2ccccc2)C(=O)N[C@H](C(=O)N[C@H](C(=O)O)[C@@H](C)CC)[C@@H](C)CC)n1)[C@@H](C)CC)C(=O)O [3c, N^α-Dipicolinoyl-bis[L-Phe-L-ILe-L-ILe-carboxylic acid]]?
Answer: IC50 (HepG2 cells; 72 h): 17 ± 1.16 µM; IC50 (MCF-7 cells): 22.9 ± 0.992 µM

Question: With CC[C@H](C)[C@@H]1NC(=O)[C@H](Cc2ccccc2)NC(=O)c2cccc(n2)C(=O)N[C@@H](Cc2ccccc2)C(=O)N[C@@H]([C@@H](C)CC)C(=O)N[C@@H]([C@@H](C)CC)C(=O)N[C@H](C(=O)OC)CCCCNC(=O)[C@H]([C@@H](C)CC)NC1=O [4c, Cyclo-(N^α-dipicolinoyl)-bis-[(L-Phe-L-ILe-L-Ile)-L-Lysmethyl ester]] as the compound, how does the IC50 (HepG2 cells; 72 h) read?
Answer: 9.63 ± 0.932 µM

Question: What about the IC50 (MCF-7 cells) of the same compound?
Answer: 19.6 ± 1.03 µM

Question: Which IC50 (HepG2 cells; read-out: IC50 (compound concentration required to inhibit the cell viability by 50%), HepG-2, hepatocellular cancer cell line HepG2, MTT assay, RPMI 1640, 72 h incubation, absorbance 570 nm, mean ± SD, triplicates) does the source give for N.N.[Cl][Pt][Cl] [Cisplatin, reference compound] here?
Answer: 10.9 ± 0.962 µM

Question: With CC[C@H](C)[C@H](NC(=O)[C@H](Cc1ccccc1)NC(=O)c1cccc(C(=O)N[C@@H](Cc2ccccc2)C(=O)N[C@H](C(=O)N[C@H](C(=O)OC)[C@@H](C)CC)[C@@H](C)CC)n1)C(=O)N[C@H](C(=O)OC)[C@@H](C)CC [2c, N^α-Dipicolinoyl-bis[L-Phe-L-ILe-L-ILe-methyl ester]] as the compound, how does the IC50 (HepG2 cells; 72 h) read?
Answer: 19.3 ± 1.06 µM

Question: What about the IC50 (MCF-7 cells) of the same compound?
Answer: 24.9 ± 1.08 µM

Question: With CC[C@H](C)[C@H](NC(=O)c1cccc(C(=O)N[C@H](C(=O)N[C@H](C(=O)N[C@@H](Cc2ccccc2)C(=O)OC)[C@@H](C)CC)[C@@H](C)CC)n1)C(=O)N[C@H](C(=O)N[C@@H](Cc1ccccc1)C(=O)OC)[C@@H](C)CC [2a, N^α-Dipicolinoyl-bis[L-ILe-L-ILe-L-Phe-methyl ester]] as the compound, how does the IC50 (HepG2 cells; 72 h) read?
Answer: 17.5 ± 0.876 µM

Question: And the IC50 (MCF-7 cells)?
Answer: > 100 µM

Question: Which results are given for CC[C@H](C)[C@H](NC(=O)[C@H](Cc1ccccc1)NC(=O)[C@@H](NC(=O)c1cccc(C(=O)N[C@H](C(=O)N[C@@H](Cc2ccccc2)C(=O)N[C@H](C(=O)O)[C@@H](C)CC)[C@@H](C)CC)n1)[C@@H](C)CC)C(=O)O [3b, N^α-Dipicolinoyl-bis[L-ILe-L-Phe-L-ILe-carboxylic acid]]?
Answer: IC50 (HepG2 cells; 72 h): 9.66 ± 0.792 µM; IC50 (MCF-7 cells): 9.91 ± 0.491 µM

Question: For CC[C@H](C)[C@@H]1NC(=O)c2cccc(n2)C(=O)N[C@@H]([C@@H](C)CC)C(=O)N[C@@H](Cc2ccccc2)C(=O)N[C@@H]([C@@H](C)CC)C(=O)N[C@H](C(=O)O)CCCCNC(=O)[C@H]([C@@H](C)CC)NC(=O)[C@H](Cc2ccccc2)NC1=O [5b, Cyclo-(N^α-dipicolinoyl)-bis-[(L-ILe-L-Phe-L-Ile)-L-Lyscarboxylic acid]], which IC50 (HepG2 cells; 72 h) is on record?
Answer: 7.09 ± 0.784 µM
